# Test results as given in patent US4435583A, “2-Halo-substituted monic acid A useful as antibacterial compounds” (Beecham Group p.l.c., priority 1981, dated 1984).
# Key:
# Type in all cases: cell-based
# M. suipneumoniae HK(2) = assay: In vitro anti-mycoplasmal MIC; details: Friis broth, 0.9% agarose, 6 days, 37° C.
# [1] = test system: M. suipneumoniae NCTC 10110; assay: In vitro anti-mycoplasmal MIC; details: Friis broth, 0.9% agarose, 6 days, 37° C.
# [2] = test system: M. bovigenitalium ATCC 14173; assay: In vitro anti-mycoplasmal MIC; details: 144 h, Friis broth, 0.9% agarose, 6 days, 37° C., read-out: MIC
# [3] = test system: M. suipneumoniae ATCC 25095; assay: In vitro anti-mycoplasmal MIC; details: Friis broth, 0.9% agarose, 6 days, 37° C.
# M. dispar NCTC 10125 = assay: In vitro anti-mycoplasmal MIC; details: 144 h, Friis broth, 0.9% agarose, 6 days, 37° C., read-out: MIC
# M. pneumoniae ATCC 15492 = assay: In vitro anti-mycoplasmal MIC; details: Friis broth, 0.9% agarose, 6 days, 37° C.
# M. suipneumoniae MS16 = assay: In vitro anti-mycoplasmal MIC; details: Mesomycoplasma hyopneumoniae, 144 h, Friis broth, 0.9% agarose, 6 days, 37° C., read-out: MIC
# [4] = test system: Erysipelothrix rhusiopathiae NCTC 8163; assay: MIC against veterinary bacteria; details: Diagnostic Sensitivity Test Agar, 18 hours, 37° C.
# Procedure: (§1) The values were determined using a two fold serial dilutions in Diagnostic Sensitivity Test Agar with an inoculum of 10^4 organisms and incubation for 18 hours at 37° C.
# S. dublin S7 = assay: MIC against veterinary bacteria; details: Diagnostic Sensitivity Test Agar, 18 hours, 37° C.
# Procedure: as §1
# Bord. bronchiseptica B08 = assay: MIC against veterinary bacteria; details: Diagnostic Sensitivity Test Agar, 18 hours, 37° C.
# Procedure: as §1
# E. coli E1 = assay: MIC against veterinary bacteria; details: Diagnostic Sensitivity Test Agar, 18 hours, 37° C.
# Procedure: as §1
# Strep. uberis SPU1 = assay: MIC against veterinary bacteria; details: Strep. uberis SPU1; Diagnostic Sensitivity Test Agar; 18 hours, 37° C.
# Procedure: as §1
# E. coli NCTC 10418 [5] = assay: MIC against veterinary bacteria; details: Diagnostic Sensitivity Test Agar, 18 hours, 37° C.
# Procedure: as §1
# Bord. bronchiseptica B09 = assay: MIC against veterinary bacteria; details: Diagnostic Sensitivity Test Agar, 18 hours, 37° C.
# Procedure: as §1
# Past. haemolytica PA5 = assay: MIC against veterinary bacteria; details: Diagnostic Sensitivity Test Agar, 18 hours, 37° C.
# Procedure: as §1
# [6] = test system: Strep. suis (group D) SPS11; assay: MIC against veterinary bacteria; details: Diagnostic Sensitivity Test Agar, 18 hours, 37° C.
# Procedure: as §1
# Staph. aureus Oxford [7] = assay: MIC against veterinary bacteria; details: Diagnostic Sensitivity Test Agar, 18 hours, 37° C.
# Procedure: as §1
# Staph. aureus 152 = assay: MIC against veterinary bacteria; details: Diagnostic Sensitivity Test Agar, 18 hours, 37° C.
# Procedure: as §1
# Strep. dysgalactiae SPD1 = assay: MIC against veterinary bacteria; details: Diagnostic Sensitivity Test Agar, 18 hours, 37° C.
# Procedure: as §1
# Past. multocida PA1 = assay: MIC against veterinary bacteria; details: Diagnostic Sensitivity Test Agar, 18 hours, 37° C.
# Procedure: as §1
# S. typhimurium S18 = assay: MIC against veterinary bacteria; details: Diagnostic Sensitivity Test Agar, 18 hours, 37° C.
# Procedure: as §1
# Strep. agalactiae SPA1 = assay: MIC against veterinary bacteria; details: Diagnostic Sensitivity Test Agar, 18 hours, 37° C.
# Procedure: as §1
# Past. multocida PA2 = assay: MIC against veterinary bacteria; details: Diagnostic Sensitivity Test Agar, 18 hours, 37° C.
# Procedure: as §1
# [8] = test system: Corynebacterium pyogenes CY1; assay: MIC against veterinary bacteria; details: Diagnostic Sensitivity Test Agar, 18 hours, 37° C.
# Procedure: as §1
# Staph. aureus B4 = assay: MIC against veterinary bacteria; details: Diagnostic Sensitivity Test Agar, 18 hours, 37° C.
# Procedure: as §1
# M. suipneumoniae UCD 1 = assay: In vitro anti-mycoplasmal MIC; details: Friis broth, 0.9% agarose, 6 days, 37° C.
# Strep. 2788-B = assay: MIC against human bacteria; details: nutrient agar, 5% chocolated horse blood, 18 hours, 37° C.
# Procedure: (§2) The values were determined by serial dilutions in nutrient agar with 5% chocolated horse blood after incubations for 18 hours at 37° C.
# Bacillus subtilis 6633 = assay: MIC against human bacteria; details: nutrient agar, 5% chocolated horse blood, 18 hours, 37° C.
# Procedure: as §2
# P. mirabilis 889 = assay: MIC against human bacteria; details: nutrient agar, 5% chocolated horse blood, 18 hours, 37° C.
# Procedure: as §2
# [9] = test system: Strep. pyrogenes R80/421-A; assay: MIC against human bacteria; details: nutrient agar, 5% chocolated horse blood, 18 hours, 37° C.
# Procedure: as §2
# Strep. pneumoniae CN33 = assay: MIC against human bacteria; details: nutrient agar, 5% chocolated horse blood, 18 hours, 37° C.
# Procedure: as §2
# [10] = test system: Corynebacterium xerosis 9755; assay: MIC against human bacteria; details: nutrient agar, 5% chocolated horse blood, 18 hours, 37° C.
# Procedure: as §2
# [11] = test system: Neisseria catarrhalis 1502; assay: MIC against human bacteria; details: nutrient agar, 5% chocolated horse blood, 18 hours, 37° C.
# Procedure: as §2
# K. aerogenes A = assay: MIC against human bacteria; details: nutrient agar, 5% chocolated horse blood, 18 hours, 37° C.
# Procedure: as §2
# E. coli NCTC 10418 [12] = assay: MIC against human bacteria; details: nutrient agar, 5% chocolated horse blood, 18 hours, 37° C.
# Procedure: as §2
# [13] = test system: Ps. aeruginosa NCTC 10662; assay: MIC against human bacteria; details: nutrient agar, 5% chocolated horse blood, 18 hours, 37° C.
# Procedure: as §2
# [14] = test system: Haemophilus influenzae Wy21; assay: MIC against human bacteria; details: nutrient agar, 5% chocolated horse blood, 18 hours, 37° C., read-out: MIC
# Procedure: as §2
# [15] = test system: Haemophilus influenzae Q1; assay: MIC against human bacteria; details: nutrient agar, 5% chocolated horse blood, 18 hours, 37° C., read-out: MIC
# Procedure: as §2
# Staph. aureus Russell = assay: MIC against human bacteria; details: nutrient agar, 5% chocolated horse blood, 18 hours, 37° C.
# Procedure: as §2
# Past. multocida 1633 = assay: MIC against human bacteria; details: nutrient agar, 5% chocolated horse blood, 18 hours, 37° C.
# Procedure: as §2
# Strep. 641848-C = assay: MIC against human bacteria; details: nutrient agar, 5% chocolated horse blood, 18 hours, 37° C.
# Procedure: as §2
# Staph. aureus Oxford [16] = assay: MIC against human bacteria; details: nutrient agar, 5% chocolated horse blood, 18 hours, 37° C.
# Procedure: as §2
# Sarcina lutea 8340 = assay: MIC against human bacteria; details: nutrient agar, 5% chocolated horse blood, 18 hours, 37° C.
# Procedure: as §2
# E. coli ESS = assay: MIC against human bacteria; details: nutrient agar, 5% chocolated horse blood, 18 hours, 37° C.
# Procedure: as §2
# Staph. aureus W2827 = assay: MIC against human bacteria; details: nutrient agar, 5% chocolated horse blood, 18 hours, 37° C.
# Procedure: as §2
# Strep. faecalis I = assay: MIC against human bacteria; details: nutrient agar, 5% chocolated horse blood, 18 hours, 37° C.
# Procedure: as §2
# M. hyorhinis ATCC 23234 = assay: In vitro anti-mycoplasmal MIC; details: Mesomycoplasma hyorhinis, ATCC23234, 144 h, Friis broth, 0.9% agarose, 6 days, 37° C., read-out: MIC
# [17] = test system: M. suipneumoniae J2206/183b; assay: In vitro anti-mycoplasmal MIC; details: Friis broth, 0.9% agarose, 6 days, 37° C.
# M. hyorhinis ATCC 25021 = assay: In vitro anti-mycoplasmal MIC; details: Mesomycoplasma hyorhinis, ATCC25021, 144 h, Friis broth, 0.9% agarose, 6 days, 37° C., read-out: MIC
# [18] = test system: M. hyosynoviae ATCC 25591; assay: In vitro anti-mycoplasmal MIC; details: 144 h, Friis broth, 0.9% agarose, 6 days, 37° C., read-out: MIC
# M. suipneumoniae Str.11 = assay: In vitro anti-mycoplasmal MIC; details: Friis broth, 0.9% agarose, 6 days, 37° C.
# M. bovis NCTC 10131 = assay: microbe, parasite or virus in culture; details: M. bovis NCTC 10131; Friis broth, 0.9% agarose; 6 days, 37° C.
# M. suipneumoniae TAM 6N = assay: In vitro anti-mycoplasmal MIC; details: Friis broth, 0.9% agarose, 6 days, 37° C.
# M. suipneumoniae NB12 = assay: In vitro anti-mycoplasmal MIC; details: Friis broth, 0.9% agarose, 6 days, 37° C.
# M. suipneumoniae JF435 = assay: In vitro anti-mycoplasmal MIC; details: Friis broth, 0.9% agarose, 6 days, 37° C.
# M. gallisepticum S6 = assay: In vitro anti-mycoplasmal MIC; details: Friis broth, 0.9% agarose, 6 days, 37° C.
# M. suipneumoniae LABER = assay: In vitro anti-mycoplasmal MIC; details: Mesomycoplasma hyopneumoniae, 144 h, Friis broth, 0.9% agarose, 6 days, 37° C., read-out: MIC
# [19] = test system: M. suipneumoniae PW/C/210; assay: In vitro anti-mycoplasmal MIC; details: Mesomycoplasma hyopneumoniae, 144 h, Friis broth, 0.9% agarose, 6 days, 37° C., read-out: MIC
compound,measurement,setting,value
"CCOC(=O)C(F)=C(C)CC1OCC(CC2OC2C(C)C(C)O)C(O)C1O [Example 2, Ethyl-4-[5S-(2S,3S-epoxy-5S-hydroxy-4S-methylhexyl)-3R, 4R-dihydroxytetrahydropyran-2S-yl]-2-fluoro-3-methylbut-2(E)-enoate]",MIC,M. suipneumoniae HK(2),10.0 µg/mL
same,MIC,[1],10.0 µg/mL
same,MIC,[2],0.5 µg/mL
same,MIC,[3],10.0 µg/mL
same,MIC,M. dispar NCTC 10125,2.5 µg/mL
same,MIC,M. pneumoniae ATCC 15492,10.0 µg/mL
same,MIC,M. suipneumoniae MS16,5 µg/mL
same,MIC,[4],80.0 µg/mL
same,MIC,S. dublin S7,> 80.0 µg/mL
same,MIC,Bord. bronchiseptica B08,> 80.0 µg/mL
same,MIC,E. coli E1,> 80.0 µg/mL
same,MIC,Strep. uberis SPU1,20.0 µg/mL
same,MIC,E. coli NCTC 10418 [5],> 80.0 µg/mL
same,MIC,Bord. bronchiseptica B09,> 80.0 µg/mL
same,MIC,Past. haemolytica PA5,80.0 µg/mL
same,MIC,[6],80.0 µg/mL
same,MIC,Staph. aureus Oxford [7],40.0 µg/mL
same,MIC,Staph. aureus 152,40.0 µg/mL
same,MIC,Strep. dysgalactiae SPD1,40.0 µg/mL
same,MIC,Past. multocida PA1,40.0 µg/mL
same,MIC,S. typhimurium S18,> 80.0 µg/mL
same,MIC,Strep. agalactiae SPA1,80.0 µg/mL
same,MIC,Past. multocida PA2,20.0 µg/mL
same,MIC,[8],80.0 µg/mL
same,MIC,Staph. aureus B4,40.0 µg/mL
same,MIC,M. suipneumoniae UCD 1,10.0 µg/mL
same,MIC,Strep. 2788-B,> 100.0 µg/mL
same,MIC,Bacillus subtilis 6633,100.0 µg/mL
same,MIC,P. mirabilis 889,> 100.0 µg/mL
same,MIC,[9],100.0 µg/mL
same,MIC,Strep. pneumoniae CN33,100.0 µg/mL
same,MIC,[10],> 100.0 µg/mL
same,MIC,[11],10.0 µg/mL
same,MIC,K. aerogenes A,> 100.0 µg/mL
same,MIC,E. coli NCTC 10418 [12],> 100.0 µg/mL
same,MIC,[13],> 100.0 µg/mL
same,MIC,[14],10 µg/mL
same,MIC,[15],10 µg/mL
same,MIC,Staph. aureus Russell,50.0 µg/mL
same,MIC,Past. multocida 1633,50.0 µg/mL
same,MIC,Strep. 641848-C,100.0 µg/mL
same,MIC,Staph. aureus Oxford [16],25.0 µg/mL
same,MIC,Sarcina lutea 8340,> 100.0 µg/mL
same,MIC,E. coli ESS,50.0 µg/mL
same,MIC,Staph. aureus W2827,50.0 µg/mL
same,MIC,Strep. faecalis I,> 100.0 µg/mL
same,MIC,M. hyorhinis ATCC 23234,5 µg/mL
same,MIC,[17],10.0 µg/mL
same,MIC,M. hyorhinis ATCC 25021,5 µg/mL
same,MIC,[18],10 µg/mL
same,MIC,M. suipneumoniae Str.11,5.0 µg/mL
same,MIC,M. bovis NCTC 10131,0.25 µg/mL
same,MIC,M. suipneumoniae TAM 6N,10.0 µg/mL
same,MIC,M. suipneumoniae NB12,10.0 µg/mL
same,MIC,M. suipneumoniae JF435,10.0 µg/mL
same,MIC,M. gallisepticum S6,10.0 µg/mL
same,MIC,M. suipneumoniae LABER,5 µg/mL
same,MIC,[19],5 µg/mL
